From patent publication US7105527B2, “N4-acylcytosine nucleosides for treatment of viral infections” (priority 2001, dated 2006)
Like-named read-outs stand apart in the source and are kept apart here.

How the values were obtained:
[1] = Cytotoxicity assay in HepG2 cells; type: cell-based; conditions: human
Procedure: (§1) The toxicity of the compounds was assessed in Vero, human PBM, CEM (human lymphoblastoid), MT-2, and HepG2 cells, as described previously (Schinazi […]., Cannon D. L., Xie […]., Smith […]. […] Cycloheximide was included as positive cytotoxic control, and untreated cells exposed to solvent were included as negative controls. The cytotoxicity IC50 was obtained from the concentration-response curve using the median effective method described previously (Chou […]. […] Belen'kii M. S. & Schinazi R. F.

[2] = Cytotoxicity assay in MT-2 cells; type: cell-based; conditions: human
Procedure: as §1

HIV-1LAl = assay: Anti-HIV (in PBM cells) assay, reverse transcriptase readout; type: cell-based; conditions: Human immunodeficiency virus 1, PBMC
Procedure: Anti-HIV-1 activity of the compounds was determined in human peripheral blood mononuclear (PBM) cells as described previously (Schinazi […]., Cannon D., Mathis R., Lloyd R. M. Jr., […]., St. Clair M., Wilson J., Furman P. A., Painter G., Choi […]. Antimicrob. Agents Chemother. 1992, 36, 2423; Schinazi […]., Cannon D., Xie […]., Smith G., Hahn E. Antimicrob. Agents Chemother. 1990, 34, 1061). Stock solutions ([…]) of the compounds were prepared in sterile DMSO and then diluted to the desired concentration in growth medium. […] Virus obtained from the cell supernatant was quantified on day 6 after infection by a reverse transcriptase assay using (rA)n.(dT)12.18 as template-primer. […] AZT was included as positive control. The antiviral EC50 and EC90 were obtained from the concentration-response curve using the median effective method described previously (Chou […]. Enzyme Regul. 1984, 22, 27-55; Belen'kii M. S. & Schinazi R. F. Antiviral Res. 1994, 25, 1-11).

HIV-1NL4-3 = assay: Anti-HIV assay in MT-4 cells, consensus p24 assay; type: cell-based
Procedure: (§2) In a second antiviral testing system, the potency of the compounds was determined by measurement of viral RNA accumulation in HIV-1RF infected MT-2 cells (Bacheler L T, Paul M, Otto M J, Jadhav P K, Stone B A & Miller J A (1994) An assay for HIV RNIn infected cell lysates, and its use for rapid evaluation of antiviral efficacy. Antivir. Chem. Chemother. 5:111–121). The virus titer was established to determine the dilution producing 15 to 30 ng/RNA per well of HIV RNIn 3 days of infection. HIV-1 RNA was quantified using biotinylated capture and alkaline phosphatase-derivatized reporter oligonucleotides as described previously (Charvet A-S, Camplo M, Faury P, Graciet J C, Mourier N, Chermann J C & Kraus J L (1994) Inhibition of human immunodeficiency virus type 1 replication by phosphonoformate- and phosphonoacetate-2′,3′-dideoxy-3′-thiacytidine conjugates. J. Med. Chem. 37:2216–2223). In a third system, the effect of analogs on the replication of HIV-1NL4-3 was determined via the InterCompany Consortium consensus p24 assay as previously described (Jadhav P K & MacKay M F (1997) Cyclic urea amide: HIV-1 protease inhibitors with low nanomolar potency against both wild types and protease inhibitor resistant mutants of HIV. J. Med. Chem. 40:181–190). Recombinant viruses were recovered by transfecting the appropriate NL4-3 plasmid by lipofection. Virus stocks recovered 7 to 10 days post-transfection were titered on MT-4 cells to determine if the dilution produced 1,000 to 3,000 ng p24 in 4 days. This dilution was then used in drug susceptibility assays, where drug was added 24 h post infection of cells, and p24 quantified by ELISA 3 days later.

[3] = Cytotoxicity assay in PBM cells; type: cell-based, human; conditions: human, human PBM cells
Procedure: as §1

[4] = Cytotoxicity assay in Vero cells; type: cell-based; conditions: African green monkey
Procedure: as §1

[5] = Cytotoxicity assay in CEM cells; type: cell-based, human; conditions: human, CEM lymphoblastoid cells
Procedure: as §1

HIV-1RF = assay: Anti-HIV (in MT-2 cells) assay, viral RNA accumulation; type: cell-based; conditions: Human immunodeficiency virus 1, MT2, EC90, MT-2 cells, read-out: Anti-HIV-1 activity in different cells (EC90, μM) MT-2
Procedure: as §2

[6] = Table 2, read-out: Cytotoxicity in different cells (IC50, μM) HepG2
[7] = Table 2, read-out: Cytotoxicity in different cells (IC50, μM) MT-2
[8] = Table 2, read-out: Anti-HIV-1 activity in different cells (EC90, μM) PBM
[9] = Human immunodeficiency virus 1, MT4, Table 2, read-out: Anti-HIV-1 activity in different cells (EC90, μM) MT-4
[10] = Table 2, read-out: Cytotoxicity in different cells (IC50, μM) PBM
[11] = Table 2, read-out: Cytotoxicity in different cells (IC50, μM) Vero
[12] = Table 2, read-out: Cytotoxicity in different cells (IC50, μM) CEM
[13] = Table 1, read-out: Cytotoxicity in different cells (IC50, μM) HepG2
[14] = Table 1, read-out: Cytotoxicity in different cells (IC50, μM) MT-2
[15] = Table 1, read-out: Anti-HIV-1 activity in different cells (EC90, μM) PBM
[16] = Human immunodeficiency virus 1, MT4, Table 1, read-out: Anti-HIV-1 activity in different cells (EC90, μM) MT-4
[17] = Table 1, read-out: Cytotoxicity in different cells (IC50, μM) PBM
[18] = Table 1, read-out: Cytotoxicity in different cells (IC50, μM) Vero
[19] = Table 1, read-out: Cytotoxicity in different cells (IC50, μM) CEM

SMILES	IC50 [1, 6]	IC50 [2, 7]	EC90 (HIV-1LAl; [8])	EC90 (HIV-1NL4-3; [9])	IC50 [3, 10]	IC50 [4, 11]	IC50 [5, 12]	EC90 (HIV-1RF; Table 2)	IC50 [1, 13]	IC50 [2, 14]	EC90 (HIV-1LAl; [15])	EC90 (HIV-1NL4-3; [16])	IC50 [3, 17]	IC50 [4, 18]	IC50 [5, 19]	EC90 (HIV-1RF; Table 1)
O=C(Nc1nc(=O)n([C@H]2C=C[C@@H](CO)O2)cc1F)c1ccc(I)cc1 [Compound 38, β-D-2′,3′-Didehydro-2′,3′-dideoxy-5-fluoro-N^4-(4-iodobenzoyl)cytidine]	> 100 µM	> 50 µM	0.76 µM	0.85 µM	57 µM	100 µM	11.4 µM	0.31 µM	–	–	–	–	–	–	–	–
O=C(Nc1nc(=O)n([C@H]2C=C[C@@H](CO)O2)cc1F)c1ccc(Br)cc1 [Compound 37, β-D-N^4-(4-Bromobenzoyl)-2,3′-didehydro-2′,3′-dideoxy-5-fluorocytidine]	> 100 µM	> 50 µM	1.4 µM	5.2 µM	53 µM	40.5 µM	24 µM	0.14 µM	–	–	–	–	–	–	–	–
O=C(Nc1nc(=O)n([C@H]2CC[C@@H](CO)O2)cc1F)c1ccc(Br)cc1 [Compound 13, β-D-N^4-(4-bromobenzoyl)-2′,3′-dideoxy-5-fluorocytidine]	–	–	–	–	–	–	–	–	> 100 µM	> 50 µM	0.03 µM	0.3 µM	> 100 µM	> 100 µM	31.6 µM	0.14 µM
O=C(Nc1nc(=O)n([C@H]2CC[C@@H](CO)O2)cc1F)c1cccc(Cl)c1 [Compound 15, β-D-N^4-(3-Chlorobenzoyl)-2′,3′-dideoxy-5-fluorocytidine]	–	–	–	–	–	–	–	–	> 100 µM	> 50 µM	0.08 µM	0.51 µM	> 100 µM	91.6 µM	68.1 µM	0.4 µM
O=C(Nc1nc(=O)n([C@H]2C=C[C@@H](CO)O2)cc1F)c1ccc(Cl)cc1 [Compound 36, β-D-N^4-(4-Chlorobenzoyl)-2′,3′-didehydro-2′,3′-dideoxy-5-fluorocytidine]	> 100 µM	> 50 µM	0.48 µM	1.9 µM	11.9 µM	72.2 µM	16.8 µM	0.23 µM	–	–	–	–	–	–	–	–
O=C(Nc1nc(=O)n([C@H]2CC[C@@H](CO)O2)cc1F)c1ccc([N+](=O)[O-])cc1 [Compound 18, β-D-2′,3′-Dideoxy-5-fluoro-N^4-(4-nitrobenzoyl)cytidine]	–	–	–	–	–	–	–	–	> 100 µM	> 50 µM	0.18 µM	0.3 µM	> 100 µM	> 100 µM	> 100 µM	0.4 µM
O=C(Nc1nc(=O)n([C@H]2C=C[C@@H](CO)O2)cc1F)c1ccc(F)cc1 [Compound 35, β-D-2′,3′-Didehydro-2′,3′-dideoxy-5-fluoro-N^4-(4-fluorobenzoyl)cytidine]	93.6 µM	> 50 µM	1.08 µM	7.2 µM	53.1 µM	83.1 µM	51.3 µM	0.88 µM	–	–	–	–	–	–	–	–
O=C(Nc1nc(=O)n([C@H]2CC[C@@H](CO)O2)cc1F)c1cccc(Br)c1 [Compound 16, β-D-N^4-(3-Bromobenzoyl)-2′,3′-dideoxy-5-fluorocytidine]	–	–	–	–	–	–	–	–	> 100 µM	> 50 µM	0.145 µM	0.42 µM	> 100 µM	80.6 µM	40.6 µM	0.51 µM
O=C(Nc1nc(=O)n([C@H]2CC[C@@H](CO)O2)cc1F)c1ccc(F)cc1 [Compound 11, β-D-2′,3′-Dideoxy-5-fluoro-N^4-(4-fluorobenzoyl)cytidine]	–	–	–	–	–	–	–	–	> 100 µM	> 50 µM	0.027 µM	0.61 µM	> 100 µM	> 100 µM	45.7 µM	0.32 µM
O=C(Nc1nc(=O)n([C@H]2CC[C@@H](CO)O2)cc1F)c1cccc(F)c1 [Compound 14, β-D-2′,3′-Dideoxy-5-fluoro-M-(3-fluorobenzoyl)cytidine]	–	–	–	–	–	–	–	–	> 100 µM	> 50 µM	0.106 µM	0.43 µM	> 100 µM	> 100 µM	80.8 µM	0.46 µM
CCc1ccc(C(=O)Nc2nc(=O)n([C@H]3CC[C@@H](CO)O3)cc2F)cc1 [Compound 25, β-D-2′,3′-Dideoxy-N^4-(4-ethylbenzoyl)-5-fluorocytidine]	–	–	–	–	–	–	–	–	> 100 µM	50 µM	0.03 µM	0.22 µM	> 100 µM	> 100 µM	89.8 µM	0.12 µM
O=C(Nc1nc(=O)n([C@H]2CC[C@@H](CO)O2)cc1F)c1ccc(Cl)cc1 [Compound 12, β-D-N^4-(4-chlororobenzoyl)-2′,3′-dideoxy-5-fluorocytidine]	–	–	–	–	–	–	–	–	7.3 µM	> 50 µM	0.02 µM	0.37 µM	> 100 µM	> 100 µM	33.4 µM	0.22 µM
CCCc1ccc(C(=O)Nc2nc(=O)n([C@H]3CC[C@@H](CO)O3)cc2F)cc1 [Compound 26, β-D-2′,3′-Dideoxy-5-fluoro-N^4-(4-n-propylbenzoyl)cytidine]	–	–	–	–	–	–	–	–	> 100 µM	> 50 µM	0.017 µM	0.22 µM	> 100 µM	> 100 µM	> 100 µM	0.1 µM
Cc1ccc(C(=O)Nc2nc(=O)n([C@H]3CC[C@@H](CO)O3)cc2F)cc1 [Compound 22, β-D-2′,3′-Dideoxy-5-fluoro-N^4-p-toluoylcytidine]	–	–	–	–	–	–	–	–	> 100 µM	> 50 µM	0.028 µM	0.23 µM	> 100 µM	> 100 µM	> 100 µM	0.31 µM
